{"source": "paper PMC5342071", "about": "“A first generation inhibitor of human Greatwall kinase, enabled by structural and functional characterisation of a minimal kinase domain construct” (Oncotarget, 2016)", "key": {"HeLa cells [1]": {"tested_on": "HeLa cells", "assay": "Immunofluorescence of p-ENSA (Ser67) in nocodazole-arrested HeLa cells", "assay_type": "cell-based, human", "text": "To more directly address the presence of other off-target effects, and / or any level of compound toxicity, we conducted a more comprehensive phenotypic analysis of GKI-1 and GWL siRNA (siGWL, Figure 5A) treated cells by immunofluorescence (IF) and time-lapse video microscopy. Using an antibody that specifically detects phosphorylation of ENSA-Ser67 (p-ENSA), we established an IF assay in order to measure GWL kinase activity in HeLa cells. We treated the cells with nocodazole in order to arrest cells in mitosis, the cell cycle stage where GWL is maximally active (Figure 5B).\nFigure 5 In cellulo efficacy of GKI-1 in HeLa cells A. HeLa cells were transfected with either non-targeting (siSCR) or GWL targeting siRNAs (siGWL). GWL and loading control protein (Tubulin) were detected by western analysis. B., C. HeLa cells treated with siSCR or siGWL (48-h) were arrested in mitosis using nocodazole and treated with DMSO, 25 μM or 50 μM GKI-1. […] (C) Quantitation of the IF p-ENSA and GWL signals was performed using the ScanR High-Content Screening Station. […] Time-lapse videos were generated using ImageJ and cellular phenotypes recorded: Mitotic events (D), mitotic arrest (E, F) and failed cytokinesis G. F. Kymographs showing an example of typical phenotypes were generated by capturing images every 5 minutes for 80 minutes. […]\nHeLa cells were plated on glass coverslips and then transfected with siRNAs using Lipofectamine RNAiMax [ThermoFisher Scientific]. […] Time-lapse videos for treated cells were recorded on an Olympus IX3 microscope fitted with an Ocra-Flash 4.0 CMOS camera [Hamatsu]. […]\nhGWLFL, 100 µl of lysate was diluted 5-fold with IP buffer and combined with 3 µl anti-Flag M2 magnetic Dynabeads [Sigma-Aldrich] overnight at 4 °C. […] The reaction was stopped by adding SDS loading buffer and analysed by western blot: p-ENSA and GWL levels were detected using the anti-phospho(Ser67)-ENSA and anti-MASTL(GWL, Prestige) antibodies. Activity was measured as the p-ENSA/GWL ratio and % kinase activity was normalised to the DMSO control. […]"}, "[2]": {"tested_on": "50 different protein kinases", "assay": "Kinase inhibition profiling against 50 protein kinases (University of Dundee)", "assay_type": "biochemical, human", "settings": "25 μM", "procedure": "In order to gain a greater understanding of potential off-target interactions of GKI-1, we undertook more rigorous kinase inhibition profiling (International Centre for Kinase Profiling, University of Dundee) where GKI-1 was tested against 50 different protein kinases, carefully selected to provide representative sampling across the human kinome.\nFigure S9. Kinase phylogeny vs GKI-1 inhibitory activity\nKinome render [Manning et al. (2002)] was used to generate a phylogenetic map with overlapping 25\nµM GKI-1 inhibitory activity plotted against 50 kinases, carefully selected to represent the human\nkinome. Illustration reproduced courtesy of Cell Signaling Technology, Inc. (www.cellsignal.com)\n(1 picture or pasted object on this page, not shown here)"}, "HeLa cells [3]": {"tested_on": "HeLa cells", "assay": "Time-lapse video microscopy of HeLa cells", "assay_type": "cell-based, human", "procedure": "Figure 5 In cellulo efficacy of GKI-1 in HeLa cells A. HeLa cells were transfected with either non-targeting (siSCR) or GWL targeting siRNAs (siGWL). GWL and loading control protein (Tubulin) were detected by western analysis. B., C. HeLa cells treated with siSCR or siGWL (48-h) were arrested in mitosis using nocodazole and treated with DMSO, 25 μM or 50 μM GKI-1. Immunofluorescent staining of p-ENSA (Red) and GWL (Green) was achieved using anti-phospho(Ser67)-ENSA and anti-MASTL(GWL, RIPLY 74C) antibodies and DAPI was used to stain the nucleus (Blue). (C) Quantitation of the IF p-ENSA and GWL signals was performed using the ScanR High-Content Screening Station. The Circularity and Total DAPI parameters were used to identify mitotic cells. D., E. HeLa cells treated with siSCR or siGWL (48-h) were treated with DMSO, 25 or 50 μM GKI-1. 4-h after treatment, μ-slides were mounted onto an Olympus IX73 microscope, within a temperature-controlled 37°C chamber maintained at 5% CO2, and images were acquired every 5-min for 8.5-h. Time-lapse videos were generated using ImageJ and cellular phenotypes recorded: Mitotic events (D), mitotic arrest (E, F) and failed cytokinesis G. F. Kymographs showing an example of typical phenotypes were generated by capturing images every 5 minutes for 80 minutes. Image sequences were chosen to start just before mitotic entry. (B - G) A total of 3 - 5 biological replicates were completed per condition and the t-test statistical module of Prism 6.0 was used to determine p-values (ns (not statistically significant): P > 0.05; *: P ≤ 0.05; **: P ≤ 0.01; ***: P ≤ 0.001).\nHeLa cells were plated on glass coverslips and then transfected with siRNAs using Lipofectamine RNAiMax [ThermoFisher Scientific]. 48 hours after treatment, cells to be used for immunofluorescence were treated with nocodozole and DMSO, or GKI-1. After fixing and staining with antibodies, cells were visualised with a ScanR High Content Screening Station [Olympus Life Science]. Time-lapse videos for treated cells were recorded on an Olympus IX3 microscope fitted with an Ocra-Flash 4.0 CMOS camera [Hamatsu]. […]\nImmunofluorescence and Time-lapse video microscopy\n2.5 X 105 HeLa cells were plated onto glass coverslips in a 6-well plate, or 4-well µ-slides [Ibidi GmbH] were seeded with 5 X 104 cells and then transfected with Qiagen AllStars negative control or Hs_MASTL_6 siRNAs (14) using Lipofectamine RNAiMax [ThermoFisher Scientific]. Media was exchanged with fresh media the next day. 48 hours after siRNA treatment, only cells to be used for immunofluorescence (IF) were treated with nocodazole (200 ng/mL) and DMSO or GKI-1 at the indicated concentration. For IF, cells were fixed, stained with primary mouse anti-GWL and rabbit anti-p-ENSA antibodies, secondary Alexa Fluor 647-conjugated anti-rabbit and Alexa Fluor 488-conjugated anti-mouse antibodies, DAPI and mounted onto glass microscope slides using Diamond Antifade Mountant [Molecular Probes, ThermoFisher Scientific]. Quantitation of IF images was performed using the ScanR High-Content Screening Station [Olympus Life Science] which acquired 220, 40x images per cover slip. Data were normalised against the AllStars negative control siRNA treated cells and values obtained from three biological replicates were reported as the mean ± 1 S.D. To assist with selecting mitotic cells, ScanR imaging software was utilised to gate for mitotic cells using the circularity factor and total […]\nTo produce time-lapse videos, after 48 hours and cell treatment with DMSO or compound (cells were treated with GKI-1 for 4-h before image acquisition) cells plated in 4-well µ-slides were imaged every 5 minutes for 8.5 hours on an Olympus IX73 microscope, using a 40 x 0.95NA air objective, and recorded on an Orca-Flash 4.0 CMOS camera [Hamatsu]. The computer program Fiji (http://www.fiji.sc/Fiji) was used to generate videos from […]\nimage sequence TIF files. […]"}}, "data": [{"smiles": "Clc1ccc(Nc2cccc(-c3cn[nH]c3)c2)cc1", "note": "[GKI-1, N-(4-chlorophenyl)-3-(1H-pyrazol-4-yl)aniline]", "values": [{"measurement": "reduction in p-ENSA levels compared to control", "setting": "HeLa cells [1]; 25 μM, nocodazole-arrested HeLa cells", "value": 2, "unit": "fold"}, {"measurement": "p-ENSA signal", "setting": "HeLa cells [1]; 50 μM, nocodazole-arrested HeLa cells", "value": "levels comparable to siGWL treated cells"}, {"measurement": "levels of p-ENSA by immunofluorescence", "setting": "HeLa cells [1]; co-incubation with nocodazole, 25 and 50 μM", "value": "dose-dependent decrease"}, {"measurement": "off-target interactions in kinase panel", "setting": "[2]", "value": "several off-target interactions"}, {"measurement": "mitotic events", "setting": "HeLa cells [3]; 50 μM", "value": "effect comparable to siGWL treatment"}, {"measurement": "time remaining in prometaphase/metaphase", "setting": "HeLa cells [3]; 50 μM", "value": "two to six"}, {"measurement": "mitotic events", "setting": "HeLa cells [3]; 25 and 50 μM, vs scrambled control siRNA", "value": "general decrease in mitotic events"}, {"measurement": "failure in cytokinesis", "setting": "HeLa cells [3]; GKI-1 treated cells compared with GWL depletion", "value": "only rarely observed"}, {"measurement": "sensitivity of treated cells to fluorescent light", "setting": "HeLa cells [3]; blue to green spectrum, live cell imaging", "value": "highly sensitive"}, {"measurement": "mitotic progression", "setting": "HeLa cells [3]; relative to SCR-treated cells", "value": "significant delay in mitotic progression"}]}]}
